Experimental data reported in patent US11279733B2, “Peptide antibiotics” (priority 2017, dated 2022).
Converted amounts (≈) assume the structure as drawn. Positions of bridges follow the written chain, without caps; N, C: chain ends. Non-standard residues stand in square brackets, D forms with d. Residues, ends and D or L forms follow the SMILES beside them. *: point of attachment. Decanoyl(3R-OH) = CCCCCCC[C@@H](O)CC(=O)*; dDab = NCC[C@@H](N)C(=O)O; Orn = NCCC[C@H](N)C(=O)O; Dab = NCC[C@H](N)C(=O)O

Assays:
[1] = In vitro nephrotoxicity, LDH release from primary human kidney cells; assay type: cell-based; settings: pH 7.4
Description: (§1) hPT cells were derived from whole human kidneys procured by the International Institute for the Advancement of Medicine (Edison, N.J., USA). All tissue was scored by a pathologist as normal (i.e., derived from non-cancerous, non-diseased tissue). Cell isolation procedures were based on those originally described by Todd et al. (1996) and modified (Cummings and Lash, 2000; Cummings et al., 2000) with use of sterile conditions (i.e., all instruments and glassware were autoclaved and all buffers were filtered through a 0.2-μm pore-size filter). Renal cortex and outer stripe were cut into slices, washed with sterile PBS, minced, and the pieces were placed in a trypsinization flask filled with 300 ml of sterile, filtered Hanks' buffer, containing 25 mM NaHCO3, 25 mM HEPES, pH 7.4, 0.5 mM EGTA, 0.2% (w/v) bovine serum albumin, 50 μg/ml gentamicin, 1.3 mg/mL collagenase, and 0.59 mg/ml CaCl2), which was filtered prior to use. Whole kidneys were perfused with Wisconsin medium and kept on ice until they arrived at the laboratory, which was usually within 24 h of removal from the donor.
(§2) All buffers were continuously bubbled with 95% O2/5% CO2 and were maintained at 37° C. Minced cortical pieces from whole kidneys were subjected to collagenase digestion for 60 min, after which the supernatant was filtered through a 70-μm mesh filter to remove tissue fragments, centrifuged at 150×g for 7 min, and the pellet resuspended in Dulbecco's Modified Eagle's Medium: Ham's F12 Medium (DMEM/F12; 1/1). Approximately 5 to 7×10^6 cells were obtained per 1 g of human kidney cortical tissue.
(§3) hPT cells were resuspended in 2 mL of DMEM/F12 and diluted to 500 mL with cell culture medium, which was serum-free and hormonally-defined. Composition of this supplemented medium was based on earlier work establishing optimal conditions for primary culture of rat PT cells (Lash et al., 1995). Basal medium was a 1:1 mixture of DMEM/F12. […] Cells were seeded in a volume of 0.5 ml at a density of 50-100 μg protein per cm^2 (0.5-1.0×10^6 cells/ml) on 24-well plates. Cultures were grown at 37° C. in a humidified incubator under an atmosphere of 95% air/5% CO2 at pH 7.4. Cultures were grown to approximately 80%-90% confluence (generally 5-6 days) prior to experiments. Cells were harvested by either scraping the flasks with a Teflon scraper or by brief incubation with Cellstripper (Cellgro, Herndon, Va., USA) (in Ca^2+- and Mg^2+-free Hanks' buffer).

[2] = tested on: K. pneumoniae ATCC 13883; settings: ATCC 13883
Procedure, shortened: (§4)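 Mid-log cultures grown in Mueller Hinton broth at 37° C were tested by 2-fold broth microdilution at 5×10^5 CFU/mL final. Compounds were dissolved in water and tested over a final range of 32 to 0.015 μg/mL.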

[3] = tested on: S. aureus ATCC 25923, MSSA; settings: ATCC 25923
Procedure, shortened: as §4

[4] = tested on: A. baumannii ATCC 19606; settings: ATCC 19606
Procedure, shortened: as §4

[5] = tested on: K. pneumoniae ATCC 700603, MDR; settings: ATCC 700603
Procedure, shortened: as §4

[6] = tested on: K. pneumoniae GN_102 PmxR; settings: GN 102 PmxR
Procedure, shortened: as §4

[7] = tested on: K. pneumoniae ATCC BAA-2146, NDM-1 pos; settings: ATCC BAA-2146
Procedure, shortened: as §4

[8] = tested on: A. baumannii GN_093 PmxR; settings: GN 093 PmxR
Procedure, shortened: as §4

[9] = tested on: P. aeruginosa ATCC 27853; settings: ATCC 27853
Procedure, shortened: as §4

[10] = tested on: P. aeruginosa GN_105, PmxR; settings: GN 105, PmxR
Procedure, shortened: as §4

[11] = tested on: E. coli ATCC 25922; settings: ATCC 25922
Procedure, shortened: as §4

[12] = tested on: P. aeruginosa GN_043, PmxR; settings: polymyxin-resistant
Procedure, shortened: as §4

[13] = tested on: K. pneumoniae GN_106, PmxR; settings: GN 106, PmxR
Procedure, shortened: as §4

[14] = In vitro nephrotoxicity, GGT release from primary human kidney cells; assay type: cell-based; settings: pH 7.4
Description: as §1, §2, §3
Release of gamm-glutanyltransferase was assessed according to Orlowski, M., Meister, A. 1963. γ-Glutamyl-p-nitroanilide: A new convenient substrate for determination and study of L- and D-γ-glutamyltranspeptidase activities (Biochim. Biophys. Acta 73: 679-681.)
A 2.5 mM substrate Solution was prepared from 67 mg γ-glutamyl-p-nitroanilide+264 mg glycylglycine in 100 mL of 0.05 M Tris, pH 8.2 (50 mM Tris, pH 8.2: 605 mg Tris/HCl per 100 mL).
For the assay in 96-well plates, 6-μL of sample and 0.3 mL substrate solution were added to each well. The absorbance was measured at 410 nm for the appearance of product, p-nitroanilide (molar extinction=8800 M^−1 cm^−1).

[15] = tested on: Neisseria gonorrhoeae; assay: MIC determination, Neisseria gonorrhoeae; assay type: cell-based; settings: for MIC N. gonorrhoeae FA19 ATCC BAA-1838: strain FA19 ATCC BAA-1838; for MIC N. gonorrhoeae F89: strain F89; for MIC N. gonorrhoeae FA1090 A25 ATCC 700825: strain FA1090 A25 ATCC 700825; for MIC N. gonorrhoeae H041: strain H041
Protocol: Bacteria were either obtained from American Type Culture Collection (ATCC; Manassas, Va., USA) or independent academic clinical isolate collections, as listed in Table 18 below. Bacteria were cultured in Nutrient broth (NB; Bacto Laboratories, catalogue No. 234000) or Mueller Hinton broth (MHB; Bacto Laboratories, catalogue No. 211443) at 37° C. overnight with shaking (˜180 RPM). A sample of each culture was then diluted 50-fold in fresh MHB and incubated at 37° C. for 2-3 h with shaking (˜180 RPM). Compound stock solutions were prepared as 0.64 mg/mL or 2.56 mg/mL in water. The compounds, at twice the final desired concentration, were serially diluted 2-fold across the wells of 96-well plates (Polystyrene, Corning, catalogue No. 3370). Mid-log phase bacterial cultures (after 2-3 h incubation) were diluted to a final concentration of 1×10^6 colony forming units (CFU)/mL, and 50 μL was added to each well giving a final cell density of 5×10^5 and a compound concentration range of 32 μg/mL to 0.015 μg/mL (128-0.06 μg/mL against P. aeruginosa PA9704).

Row | SMILES | CC50 [1] [µg/mL] | MIC K. pneumoniae ATCC 13883 [2] [µg/mL] | MIC S. aureus ATCC 25923, MSSA [3] [µg/mL] | MIC A. baumannii ATCC 19606 [4] [µg/mL] | MIC K. pneumoniae ATCC 700603, MDR [5] [µg/mL] | MIC K. pneumoniae GN_102 PmxR [6] [µg/mL] | MIC K. pneumoniae ATCC BAA-2146, NDM-1 pos [7] [µg/mL] | MIC A. baumannii GN_093 PmxR [8] [µg/mL] | MIC P. aeruginosa ATCC 27853 [9] [µg/mL] | MIC P. aeruginosa GN_105, PmxR [10] [µg/mL] | MIC E. coli ATCC 25922 [11] [µg/mL] | MIC P. aeruginosa GN_043, PmxR [12] [µg/mL] | MIC K. pneumoniae GN_106, PmxR [13] [µg/mL] | CC50 [14] [µg/mL] | MIC N. gonorrhoeae FA19 ATCC BAA-1838 [15] [µg/mL] | MIC N. gonorrhoeae F89 [15] [µg/mL] | MIC N. gonorrhoeae FA1090 A25 ATCC 700825 [15] [µg/mL] | MIC N. gonorrhoeae H041 [15] [µg/mL] | further results
1 | CCCCCCC[C@@H](O)CC(=O)N[C@H](CCN)C(=O)N[C@H]1CCNC(=O)[C@H](CC(C)C)NC(=O)[C@H](CCCN)NC(=O)[C@H](CCN)NC(=O)[C@H](CC(C)C)NC(=O)[C@@H](Cc2ccccc2)NC(=O)[C@H](CCN)NC1=O [compound 988, 3(R)OH-nC9CO-D-Dab-cyc[L-Dab-L-Dab-D-Phe-L-Leu-L-Dab-L-Orn-L-Leu]] ({Decanoyl(3R-OH)}-[dDab][Dab][Dab][dF]L[Dab][Orn]L; lactam 2-C) | 118 (≈ 111 µM) | 2 (≈ 1.89 µM) | 16 (≈ 15.1 µM) | 4 (≈ 3.78 µM) | 2 (≈ 1.89 µM) | 2 (≈ 1.89 µM) | 2 (≈ 1.89 µM) | 8 (≈ 7.56 µM) | 2 (≈ 1.89 µM) | 2 (≈ 1.89 µM) | 2 (≈ 1.89 µM) | 2 (≈ 1.89 µM) | 2 (≈ 1.89 µM) | > 128 | 0.78 (≈ 0.737 µM) | – | – | – | –
2 | CCCCCCC[C@@H](O)CC(=O)N[C@H](CCN)C(=O)N[C@H]1CCNC(=O)[C@H](CC(C)C)NC(=O)[C@H](CCN)NC(=O)[C@H](CCCN)NC(=O)[C@H](CC(C)C)NC(=O)[C@@H](Cc2ccccc2)NC(=O)[C@H](CCN)NC1=O [compound 991, 3(R)OH-nC9CO-D-Dab-cyc[L-Dab-L-Dab-D-Phe-L-Leu-L-Orn-L-Dab-L-Leu]] ({Decanoyl(3R-OH)}-[dDab][Dab][Dab][dF]L[Orn][Dab]L; lactam 2-C) | 107 (≈ 101 µM) | – | – | – | – | – | – | – | – | – | – | – | – | > 128 | 0.39 (≈ 0.368 µM) | 1.3 (≈ 1.23 µM) | 1.56 (≈ 1.47 µM) | 2.08 (≈ 1.97 µM) | MIC, K. pneumoniae ATCC 13883 [2]: 4 µg/mL (≈ 3.78 µM); MIC, S. Aureus ATCC 25923, MSSA [3]: 8 µg/mL (≈ 7.56 µM); MIC, A. baumannii ATCC 19606 [4]: 4 µg/mL (≈ 3.78 µM); MIC, K. pneumoniae ATCC 700603, MDR [5]: 4 µg/mL (≈ 3.78 µM); MIC, K. pneumoniae Cl Koprana 10065 0661:1, PmxR [6]: 1 µg/mL (≈ 0.945 µM); MIC, K. pneumoniae ATCC BAA-2146, NDM-1 pos [7]: 4 µg/mL (≈ 3.78 µM); MIC, A. baumannii Cl Ptyela 10073 4512:2, PmxR [8]: 8 µg/mL (≈ 7.56 µM); MIC, P. aeruginosa ATCC 27853 [9]: 2 µg/mL (≈ 1.89 µM); MIC, P. aeruginosa PA9704, PmxR [10]: 1 µg/mL (≈ 0.945 µM); MIC, E. coli ATCC 25922 [11]: 4 µg/mL (≈ 3.78 µM); MIC, P. aeruginosa FADDI-PA070, PmxR ([12]; Table 5): 2 µg/mL (≈ 1.89 µM); MIC, K. pneumoniae Cl 138-16347-20362, PmxR [13]: 2 µg/mL (≈ 1.89 µM)
3 | CCCCCCC[C@@H](O)CC(=O)N[C@H](CCN)C(=O)N[C@H]1CCNC(=O)[C@H](Cc2c[nH]c3ccccc23)NC(=O)[C@H](CCN)NC(=O)[C@H](CCN)NC(=O)[C@H](CC(C)C)NC(=O)[C@@H](Cc2ccccc2)NC(=O)[C@H](CCN)NC1=O [compound 6509, 3(R)OH-nC9CO-D-Dab-cyc[L-Dab-L-Dab-D-Phe-L-Leu-L-Dab-L-Dab-L-Trp]] ({Decanoyl(3R-OH)}-[dDab][Dab][Dab][dF]L[Dab][Dab]W; lactam 2-C) | > 128 | 4 (≈ 3.58 µM) | 4 (≈ 3.58 µM) | 8 (≈ 7.16 µM) | 2 (≈ 1.79 µM) | 4 (≈ 3.58 µM) | 4 (≈ 3.58 µM) | 8 (≈ 7.16 µM) | 2 (≈ 1.79 µM) | 1 (≈ 0.895 µM) | 4 (≈ 3.58 µM) | 1 (≈ 0.895 µM) | 4 (≈ 3.58 µM) | > 128 | 0.78 (≈ 0.698 µM) | 1.04 (≈ 0.931 µM) | 0.65 (≈ 0.582 µM) | 1.69 (≈ 1.51 µM) | –
4 | CCCCCCC[C@@H](O)CC(=O)N[C@H](CCN)C(=O)N[C@H]1CCNC(=O)[C@H](CC(C)C)NC(=O)[C@H](CCCNC(=N)N)NC(=O)[C@H](CCN)NC(=O)[C@H](CC(C)C)NC(=O)[C@@H](Cc2ccccc2)NC(=O)[C@H](CCN)NC1=O [compound 8643, 3(R)OH-nC9CO-D-Dab-cyc[L-Dab-L-DAB-D-Phe-L-Leu-L-Dab-L-Arg-L-Leu]] ({Decanoyl(3R-OH)}-[dDab][Dab][Dab][dF]L[Dab]RL; lactam 2-C) | > 128 | 2 (≈ 1.82 µM) | 16 (≈ 14.5 µM) | 4 (≈ 3.63 µM) | 2 (≈ 1.82 µM) | 2 (≈ 1.82 µM) | 2 (≈ 1.82 µM) | 16 (≈ 14.5 µM) | 2 (≈ 1.82 µM) | – | 1 (≈ 0.909 µM) | 2 (≈ 1.82 µM) | 2 (≈ 1.82 µM) | > 128 | 1.56 (≈ 1.42 µM) | – | – | – | –
